# Legend:
# [1] = Concentration of molecular iodine dissolved in the vehicle (saturated solutions); type: physicochemical
# Experimental: Molecular iodine (I2) solutions in the semifluorinated alkane F4H5 at target concentrations of 0.01 mg/ml, 0.05 mg/ml, 0.1 mg/mL, 0.5 mg/mL, 0.55 mg/ml and 0.94 mg/mL were prepared. Molecular iodine was weighed into clear glass vials, followed by addition of the calculated volume of semifluorinated alkane F4H5. The compositions were stirred for 2 hours at room temperatures. The compositions provided clear pink solutions, ranging from strong pink/violet color at high concentrations (0.55 mg/ml) to very dilute pinkish colour at lower concentrations (0.01 mg/ml).
# The 0.94 mg/ml solution was prepared by adding additional F4H5 to a composition comprising 1.0 mg/mL molecular iodine until all remaining molecular iodine particles were dissolved, providing a clear solution of deep pink/violet colour.
# Molecular iodine (I2) solutions in the semifluorinated alkane F6H8 at target concentrations of 0.1 mg/mL, 0.5 mg/mL and 1.0 mg/mL were prepared. Molecular iodine was weighed into clear glass vials, followed by addition of the calculated volume of semifluorinated alkane F6H8. The compositions were stirred for 2 hours at room temperature
# Additional F6H8 was added to the target 1.0 mg/mL composition until all remaining molecular iodine particles were dissolved, providing a clear solution, with a concentration of about 0.88 mg/mL. The solution is a deep pink/violet in colour.
# Solutions with higher I2 concentrations may be prepared with the addition of ethanol (non-absolute or alternatively absolute). F4H5/EtOH-Concentrations of about 20 mg/mL of I2 in F4H5 are achieved when ethanol is added to an amount of 38% (w/w), relative to the weight of the vehicle The resulting composition is a red-brown coloured solution.
# F6H8/EtOH-Solutions with higher I2 concentrations may be prepared with the addition of ethanol (non-absolute or alternatively absolute). Concentrations of about 20 mg/mL of I2 in F6H8 are achieved when ethanol is added to an amount of 38% (w/w), relative to the weight of the vehicle.
# Saturated iodine solutions as prepared in Example 1 above of I2 in F4H5 (0.94 mg/mL) and F6H8 (0.88 mg/mL) were stored standing under ambient atmosphere and temperature conditions under a capped clear glass vial for 52 weeks without protection from light.
# Rabbit corneas = assay: Ex Vivo Eye Irritation Test (EVEIT), corneal healing
# Experimental: A comparison in respect of corneal healing process was conducted for a composition comprising molecular iodine (0.25 mg/ml; 250 ppm) in 1-perfluorohexyl-octane (Composition B) with vehicle 1-perfluorohexyl-octane (Composition A) and hyaluronic acid (HYLO-COMOD®) as a reference and 0.01% BAC (benzalkonium chloride) as a control using an Ex Vivo Eye Irritation Test (EVEIT), similar to as described in M. Frentz et al, Altern. to Lab. Anim., 2008 (36) p 25-32; and N. Schrage et al, Graefes Arch Clin Exp Ophthalmol 2012 (250), 1330-1340).
# Method. […]
# After 12 h of stabilization in the culture chamber, the corneas were evaluated by microscopy and corneas with intact epithelium and without opacities were selected. […] All defects were monitored by fluorescein sodium staining (0.17% aq. solution) and microscopy.
# The test substances were administered one hour after induction of the corneal erosion and were applied six times daily onto the apex of the corneas (30-50 μL every four hours). […] All defects were monitored by fluorescein sodium stains (0.17% aq. solution) with yellow green fluorescence indicating the areas of epithelial defects. Erosion sizes were determined using a software tool of the microscope (DISKUS). […] To monitor the metabolic activity of the cornea, glucose and lactate concentrations were photometrically quantified in the outflow medium from the artificial anterior chambers.
Compound,"concentration at which all molecular iodine particles were dissolved (saturated solution) ([1]; in F4H5, room temperature) [mg/mL]",I2 concentration achieved ([1]; in F4H5 with ethanol 38% (w/w) of the vehicle),"concentration at which all molecular iodine particles were dissolved (saturated solution) ([1]; in F6H8, room temperature)",I2 concentration achieved ([1]; in F6H8 with ethanol 38% (w/w) of the vehicle),corneal healing process after induction of corneal erosion (in words) (Rabbit corneas)
"II [molecular iodine, Molecular iodine]",0.94,about 20 mg/mL,about 0.88 mg/mL,about 20 mg/mL,
benzalkonium chloride [0.01% BAC],,,,,progressive increase of the induced epithelial lesions
